Assay results from ChEMBL document CHEMBL1128253, “Synthesis and anti-HIV-1 activity of 4,5,6,7-tetrahydro-5-methylimidazo-[4,5,1-jk][1,4]benzodiazepin- 2(1H)-one (TlBO) derivatives. 4” (J Med Chem, 1995).

Tested on: MT4
Assay: Effective concentration of compound required to achieve 50% protection of MT-4 cells against the cytopathic effect of HIV-1
Format: functional, cell-based
Details: Homo sapiens

Row | Compound | IC50 [nM]
1 | CC(C)=CCN1Cc2cccc3[nH]c(=S)n(c23)C[C@@H]1C | 44

Tested on: Human immunodeficiency virus 1
Assay: Concentration required for 50% protection of MT-4 cells against the cytopathic effect of HIV-1
Format: functional, organism-based
Details: Human immunodeficiency virus 1, MT4

Row | IC50 [nM] | Compound
2 | 88 | CC(C)=CCN1Cc2c(I)ccc3[nH]c(=O)n(c23)C[C@@H]1C
3 | 5 | CSc1ccc2[nH]c(=S)n3c2c1CN(CC=C(C)C)[C@@H](C)C3
4 | 6360 | CC(C)=CCN1Cc2c(C(N)=O)ccc3[nH]c(=O)n(c23)C[C@@H]1C
5 | > 5940 | CCc1ccc2nc(O)n3c2c1CN(CC=C(C)C)[C@@H](C)C3
6 | > 2000 | CCC(=CCN1Cc2c(C)ncc3nc(O)n(c23)CC1C)CC (stereo unspecified)
7 | 6650 | C[C@H]1Cn2c(=O)[nH]c3cc(N(C)C)cc(c32)CN1CC1CC1
8 | 4.1 | Cc1cn([C@H]2C[C@H](N=[N+]=[N-])[C@@H](CO)O2)c(=O)[nH]c1=O [ZIDOVUDINE]
9 | 243 | CCC(=CCN1Cc2c(C)ncc3nc(S)n(c23)CC1C)CC (stereo unspecified)
10 | 849000 | C[C@H]1Cn2c(=O)[nH]c3ccc(N)c(c32)CN1CC1CC1
11 | 56.3 | CC(C)=CCN1Cc2c(C#N)ccc3nc(S)n(c23)C[C@@H]1C
12 | 3 | CC(C)=CCN1Cc2c(Br)ccc3nc(S)n(c23)C[C@@H]1C
13 | 60600 | C[C@H]1Cn2c(=O)[nH]c3cc(N)cc(c32)CN1CC1CC1
14 | 47.4 | CC(C)=CCN1Cc2c(I)ccc3[nH]c(=S)n(c23)C[C@@H]1C
15 | 33400 | C[C@H]1Cn2c(=O)[nH]c3cc([N+](=O)[O-])cc(c32)CN1CC1CC1

The next lines start with the compound.

Row | Compound | IC50 [nM]
16 | C[C@H]1Cn2c(=S)[nH]c3cc([N+](=O)[O-])cc(c32)CN1CC1CC1 | 2450
17 | COc1ccc2[nH]c(=S)n3c2c1CN(CC=C(C)C)[C@@H](C)C3 | 33.9
18 | CC(C)=CCN1Cc2ccc(Br)c3nc(S)n(c23)C[C@@H]1C | 1080
19 | Cc1ncc2nc(O)n3c2c1CN(CC1CC1)C(C)C3 (stereo unspecified) | 596000
20 | CC(C)=CCN1Cc2c(C)ncc3nc(O)n(c23)CC1C (stereo unspecified) | 872000
21 | CC(C)=CCN1Cc2cc(Cl)cc3[nH]c(=S)n(c23)C[C@@H]1C | 34
22 | CC(C)=CCN1Cc2c(C#N)ccc3nc(O)n(c23)C[C@@H]1C | 1140
23 | CC(C)=CCN1Cc2cc(F)cc3nc(S)n(c23)C[C@@H]1C | 25
24 | C[C@H]1Cn2c(=O)[nH]c3ccc(N(C)C)c(c32)CN1CC1CC1 | 6650
25 | C#Cc1ccc2nc(S)n3c2c1CN(CC=C(C)C)[C@@H](C)C3 | 29.6
26 | CC(C)=CCN1Cc2c(Cl)ccc3[nH]c(=S)n(c23)C[C@@H]1C [TIVIRAPINE] | 4.3
27 | C#Cc1ccc2nc(O)n3c2c1CN(CC=C(C)C)[C@@H](C)C3 | 438
28 | CC(=O)Nc1ccc2nc(O)n3c2c1CN(CC1CC1)[C@@H](C)C3 | > 796000
29 | CC(=O)Nc1cc2c3c(c1)[nH]c(=O)n3C[C@H](C)N(CC1CC1)C2 | 159000
30 | CC(C)=CCN1Cc2cc(C(F)(F)F)cc3nc(O)n(c23)C[C@@H]1C | 5920
31 | CC(C)=CCN1Cc2cc(Cl)c(Cl)c3nc(S)n(c23)C[C@@H]1C | 25.5
32 | CC(C)=CCN1Cc2c(Br)ccc3nc(O)n(c23)C[C@@H]1C | 47.3
33 | COc1ccc2c3c1[nH]c(=O)n3C[C@H](C)N(CC=C(C)C)C2 | 6630
34 | CC(C)=CCN1Cc2c(C=O)ccc3nc(S)n(c23)C[C@@H]1C | 188
35 | CC(C)=CCN1Cc2c(C)ccc3nc(O)n(c23)C[C@@H]1C | 989
36 | CCC(=CCN1Cc2cc(C(C)(C)C)cc3nc(O)n(c23)C[C@@H]1C)CC | 314
37 | CCOc1ccc2[nH]c(=S)n3c2c1CN(CC=C(C)C)[C@@H](C)C3 | 95.9
38 | CC(C)=CCN1Cc2cc(C(F)(F)F)cc3nc(S)n(c23)C[C@@H]1C | 485
39 | CC(C)=CCN1Cc2c(F)ccc3nc(S)n(c23)C[C@@H]1C | 5.8
40 | CC(C)=CCN1Cc2c(C)ccc3nc(S)n(c23)C[C@@H]1C | 13.6
41 | COc1ccc2c3c1[nH]c(=S)n3C[C@H](C)N(CC=C(C)C)C2 | 4720
